The test system of this test is HIV-1 R5 strains from clades C and D. The test can be described thus: Inhibition of HIV-1 transcytosis across HEC-1 cell line with cyclized CDR3. Format: cell-based. The note with it: cells preincubated 30 minutes at 17° C. with peptide; linear CDR3 as control.

Bridges are numbered along the chain shown (N, C = ends). Where no end group is shown, it is not given here.

On to “cyclized CDR3 derived from Fab clone 43: CDR3 of clone 43 H chain (SEQ ID NO:1) with flanking residues, cyclized by disulfide bridge, SEQ ID NO:12 (CARDPRYYDAWSGPQLYYYYMDVWCKG; disulfide 1-25; listed as Homo Sapiens)”, for which the inhibition of transcytosis result is given as “more than 50%”.

For the origin of these results see patent publication US20090191216A1, “Antibody or a fragment thereof, having neutralizing activity against HIV” (priority 2005, published 2009).
